ChEMBL document CHEMBL1201862, “PubChem BioAssay data set” (2004)
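How tested: cells in 96-well plates exposed to compound for 48 hours at five concentrations. Abbreviation: GI50, concentration required for 50% inhibition of growth.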 The source made the active and inactive calls. Rule as the data show it: active = GI50 up to about 1.1 µM and inactive = higher.

Experiments:
Test in all cases: NCI-60 cell line screen, 48 h
[1] = test system: DLD-1
[2] = test system: DMS-114
[3] = test system: HOP-18
[4] = test system: LXFL 529
[5] = test system: M19-MEL
[6] = test system: RXF 631
[7] = test system: SNB-78
[8] = test system: XF498
[9] = test system: BT-549

Measured: GI50

NC(CCSCC(F)F)C(=O)O (stereo not given)
inactive: [1] > 100 µM | [2] > 100 µM | [3] > 100 µM | [4] > 100 µM | [5] > 100 µM | [6] > 100 µM | [7] > 100 µM | [8] > 100 µM

N#CC(/C(=N\NC(N)=S)C(=O)NC1C2CC3CC(C2)CC1C3)c1ccc(Cl)cc1 (stereo not given)
inactive: [1] > 100 µM | [2] > 100 µM | [3] > 100 µM | [4] > 100 µM | [5] > 100 µM | [6] > 100 µM | [7] > 100 µM | [8] > 100 µM

Cc1cccc(C)c1NC(=O)C(=O)C1C(=O)NC(=O)NC1=O
inactive: [1] > 100 µM | [2] > 100 µM | [3] > 100 µM | [4] > 100 µM | [5] > 100 µM | [6] > 100 µM | [7] > 100 µM | [8] > 100 µM

COc1cc2c(cc1O)[C@H](Cc1ccc(Oc3cc(C[C@H]4c5cc(OC)c(OC)cc5CCN4C)ccc3OC)cc1)NCC2
inactive: [2] 18.7 µM | [3] 17.1 µM | [4] 13.7 µM | [5] 22.6 µM | [6] 15.5 µM | [8] 11.2 µM

COC(=O)C(CC=O)C(=O)C(=O)Nc1cccc(C(F)(F)F)c1 (stereo not given)
inactive: [1] > 100 µM | [2] > 100 µM | [3] > 100 µM | [4] > 100 µM | [5] > 100 µM | [6] > 100 µM | [7] > 100 µM | [8] > 100 µM

CCC(=O)N1C(=O)OCC1C(C)C (stereo not given)
inactive: [1] > 100 µM | [2] > 100 µM | [3] 15.8 µM | [4] > 100 µM | [5] > 100 µM | [6] > 100 µM | [7] > 100 µM | [8] > 100 µM

CC(=O)/C(C)=N/NC(=O)c1ccccc1O
inactive: [9] > 100 µM | [1] > 10 µM | [2] > 10 µM | [3] > 10 µM | [4] > 10 µM | [5] > 10 µM | [6] > 10 µM | [7] > 10 µM | [8] > 10 µM
